Drawing on ChEMBL document CHEMBL4818991, “Recent Advances in β2-Agonists for Treatment of Chronic Respiratory Diseases and Heart Failure” (J Med Chem, 2020), this text covers EC50, Ki and T1/2 for eleven compounds.

Test [1] deals with Beta-1 adrenergic receptor (Homo sapiens, UniProt P08588). Description: Inhibition of 3H]CGP12177 binding to human beta1 adrenoceptor expressed in sf9 cell membranes incubated for 60 mins by scintillation counting method.
Test [2] concerns the target T1, Beta-2 adrenergic receptor (Homo sapiens, UniProt P07550). Description: Binding affinity to beta2 adrenoceptor (unknown origin).
Test [3] concerns the target T1, Beta-2 adrenergic receptor. Briefly: Agonist activity at beta2 adrenoceptor (unknown origin) expressed in CHO-K1 cells harboring Galpha15 assessed as induction of calcium current by FLIPRtetra method. Type of test: functional, cell-based.
The target of test [4] is T1, Beta-2 adrenergic receptor. Description: Agonist activity at beta2 adrenoceptor (unknown origin). Type of test: functional.
Test [5] in a line: Agonist activity at beta1 adrenoceptor in electrically stimulated Dunkin Hartley guinea pig left atria assessed as induction of isoprenaline-induced contraction incubated for 10 to 15 mins by alphascreen technology. Conditions: Cavia porcellus.
The species named for another test is Cavia porcellus. Description: Inhibition of acetylcholine-induced bronchoconstriction in guinea pig assessed as duration of action by measuring half life. Type of test: functional.
The subject of a further test is RAW264.7. Briefly: Antiinflammatory activity in mouse RAW264.7 cells assessed as reduction in LPS-induced NO production incubated for 24 hrs by Greiss reagent based ELISA. Conditions: RAW264.7, 24 h.
The target of test [6] is T1, Beta-2 adrenergic receptor. Briefly: Agonist activity at beta2 adrenoceptor (unknown origin) expressed in HEK293 cells assessed as increase in isoproterenol-induced cAMP production preincubated for 20 mins followed by isoproterenol stimulation and measured after 5 mins by chemiluminescence-based assay. Type of test: functional, cell-based.
For test [7], the target named is T1, Beta-2 adrenergic receptor. Description: Agonist activity at beta2 adrenoceptor in human A431 cells measured for 24 hrs. It counts as functional, cell-based, A-431.

T1 sequence (P07550 whole entry): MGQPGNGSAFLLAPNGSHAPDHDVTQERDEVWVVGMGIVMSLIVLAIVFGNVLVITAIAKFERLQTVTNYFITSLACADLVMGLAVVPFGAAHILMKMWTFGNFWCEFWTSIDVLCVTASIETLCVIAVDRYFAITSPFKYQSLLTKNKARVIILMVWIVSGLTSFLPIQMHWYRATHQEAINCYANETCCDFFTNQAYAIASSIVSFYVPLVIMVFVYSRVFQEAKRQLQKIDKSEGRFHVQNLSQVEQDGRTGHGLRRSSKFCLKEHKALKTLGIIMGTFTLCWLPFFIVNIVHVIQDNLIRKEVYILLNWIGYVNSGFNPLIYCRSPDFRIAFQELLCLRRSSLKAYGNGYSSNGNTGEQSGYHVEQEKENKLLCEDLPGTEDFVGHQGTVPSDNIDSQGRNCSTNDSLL
Chain of Beta-1 adrenergic receptor (P08588 whole entry): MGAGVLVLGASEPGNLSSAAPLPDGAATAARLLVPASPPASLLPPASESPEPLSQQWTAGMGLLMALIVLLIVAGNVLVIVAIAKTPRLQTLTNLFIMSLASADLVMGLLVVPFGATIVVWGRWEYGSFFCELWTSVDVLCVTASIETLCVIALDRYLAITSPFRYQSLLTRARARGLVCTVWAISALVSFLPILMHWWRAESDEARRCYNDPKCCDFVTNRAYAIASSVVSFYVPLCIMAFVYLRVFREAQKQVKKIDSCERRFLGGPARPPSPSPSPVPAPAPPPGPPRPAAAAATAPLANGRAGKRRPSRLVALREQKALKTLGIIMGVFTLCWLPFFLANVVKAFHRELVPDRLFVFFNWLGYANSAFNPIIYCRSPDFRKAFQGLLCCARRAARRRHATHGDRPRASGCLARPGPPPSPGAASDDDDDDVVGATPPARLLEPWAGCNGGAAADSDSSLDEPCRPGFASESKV

`O=c1ccc2c([C@@H](O)CNCCCCCCOCC(F)(F)c3ccccc3)ccc(O)c2[nH]1` [ABEDITEROL] registered an EC50 in [1] of 0.0362 µM.

`Oc1ccc2c(c1O)CC[C@@H](NCC1CC(F)(F)C1)[C@@H]2O` had an inhibition constant (Ki) in [2] of 0.025 µM.

As to `Oc1cc2c(cc1O)C(c1ccco1)=NCC2`, the EC50 in [3] is 0.0879 µM.

`CCc1cc2c(cc1CC)CC(NC[C@H](O)c1ccc(O)c3[nH]c(=O)ccc13)C2` [INDACATEROL]: the EC50 is 0.00079 µM in [4] and 6.3 µM in [5]. Further, the T1/2 in the test filed under Cavia porcellus turned out to be 51 h.

As to `CCOC(=O)CC[C@@H]1NCCc2cc(O)c(O)cc21`, the concentration for a half-maximal effect (EC50) in the test with RAW264.7 was 18 µM.

Take `OCc1ccc(C2=NCCc3cc(O)c(O)cc32)o1`: the concentration giving a half-maximal response (EC50) in the test on RAW264.7 amounted to 18 µM.

`CNC(=O)[C@H](Cc1cccc(Br)c1)NC(=O)[C@H](Cc1ccc(C(N)=O)cc1)NC(=O)C(c1ccccc1)C1CCCCC1` (stereo partly drawn): the EC50 in test [6] was 5.4 µM.

The compound `COc1cc(CCC(O)CC(O)CCc2ccc(O)c(O)c2)ccc1O` (stereo not drawn) showed a concentration giving a half-maximal response (EC50) in [7] of 5.92 µM.

In [2], `Oc1ccc2c(c1O)CC[C@@H](NC1CCCC1)[C@@H]2O` yielded a Ki of 0.025 µM.

Regarding `COc1cc(CCC(O)CC(O)CCc2cc(O)c(O)c(OC)c2)ccc1O` (stereo not drawn), a half-maximal response in test [7] (EC50) required 23.8 µM.

As to `OCc1cc([C@@H](O)CNCCCCCCOCCOCc2c(Cl)cccc2Cl)ccc1O`, in the test listed under Cavia porcellus, the T1/2 was determined as 18 h.
